Results published in paper PMC9044058 (The Journal of General Physiology, 2022).
Where “and” joins values, the source holds several entries; their conditions need not be identical. Equal entries are not always repeated. Where two headings read alike, the source gives them in different places. Values belong to the compound of their own block, whether it stands above or below them.

How the values were obtained:
[1] = tested on: liposome-reconstituted GltPh; design: method as in Hall et al., 2020; settings: ref Hall et al., 2020; cited from earlier work
D390A mutant = tested on: D390A mutant; design: method as in Riederer and Valiyaveetil, 2019; settings: ref Riederer and Valiyaveetil, 2019; cited from earlier work
GltPh Y317F = tested on: GltPh Y317F; design: method as in Riederer and Valiyaveetil, 2019; settings: ref Riederer and Valiyaveetil, 2019; cited from earlier work
WT GltPh = target: T1, WT GltPh (Pyrococcus horikoshii, UniProt O59010, D37H/E368H/K125H/K132H/K223H/K264H/K40H); test: ITC of L-Asp and TFB-TBOA binding to WT GltPh
T1 construct: (His)8 behind a thrombin cleavage site (C, cleaved yes); made in house; host or cells: Escherichia coli DH10B
T1 sequence (O59010 1-417 D37H/K40H/K125H/K132H/K223H/K264H/E368H): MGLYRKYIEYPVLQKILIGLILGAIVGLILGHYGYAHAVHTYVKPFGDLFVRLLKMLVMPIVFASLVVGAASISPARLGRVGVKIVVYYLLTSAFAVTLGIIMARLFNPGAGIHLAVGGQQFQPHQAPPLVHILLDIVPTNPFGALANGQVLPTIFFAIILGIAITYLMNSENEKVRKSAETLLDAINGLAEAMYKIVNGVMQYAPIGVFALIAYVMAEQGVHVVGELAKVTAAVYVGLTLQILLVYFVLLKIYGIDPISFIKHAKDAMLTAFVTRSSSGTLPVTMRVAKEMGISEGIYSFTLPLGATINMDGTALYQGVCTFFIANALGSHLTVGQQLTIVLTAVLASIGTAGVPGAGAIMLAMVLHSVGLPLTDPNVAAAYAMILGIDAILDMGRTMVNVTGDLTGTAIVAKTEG
Method: (§1) Proteins were immediately concentrated to >5 mg/ml and diluted 2.5-fold to a final concentration of 30–50 µM. When diluted, the sample was supplemented with a final concentration of 1 mM DDM, 58 mM HEPES/KOH, pH 7.4, and an appropriate amount of sodium salt. 350 μl of protein samples was degassed and equilibrated to the temperature of the experiment, and ∼300 μl was loaded into the reaction cell of a small-volume NanoITC (TA Instruments), or in the case of TFB-TBOA experiments, an Affinity Auto ITC (TA Instruments). […] 2 μl of titrant was injected every 5–6 min, at a constant temperature and a stirring rate of 250 rpm (125 rpm for TFB-TBOA experiments). Injection heats measured after protein was saturated with the ligand were used to determine the dilution heats subtracted from the ligand binding heats. Data were analyzed using NanoAnalyze software (TA Instruments) applying either the “independent” or “multiple sites” (referred to as “single-state” and “two-state,” respectively, throughout the text) binding models. […] The fraction of total protein bound is given by the following: [PS]/[P]=n1K1[S]/1+K1[S]+n2K2[S]/1+K2[S], where ni is the apparent number of sites per protein molecule.
For the TFB-TBOA competition experiments, protein was first titrated with TBOA to saturation. Then, the concentration of TFB-TBOA was increased to a final concentration of 150 μM of TFB-TBOA, so that the overflow protein was also saturated.

P-GltPh (S279E/D405N) [2] = target: T2, P-GltPh (S279E/D405N) (Pyrococcus horikoshii, UniProt O59010, D37H/D405N/E368H/K125H/K132H/K223H/K264H/K40H/S279E); format: binding; settings: for n1 / n2: single trials; for % n2 / ΔS1: trials and avg (mean ± SD); for fitted OFS2 fraction: L-Asp ITC, 500 mM sodium salt
T2 construct: (His)8 behind a thrombin cleavage site (C, cleaved yes); made in house; host or cells: Escherichia coli DH10B
T2 sequence (O59010 1-417 D37H/K40H/K125H/K132H/K223H/K264H/S279E/E368H/D405N): as the sequence (O59010 1-417 D37H/K40H/K125H/K132H/K223H/K264H/E368H) above, with S279E, D405N counted along it
Method: as §1

GltPh (C321A/N378C) = target: T3, GltPh (C321A/N378C) (Pyrococcus horikoshii, UniProt O59010, C321A/D37H/E368H/K125H/K132H/K223H/K264H/K40H/N378C); format: biochemical; settings: 200 mM sodium salt, 1 μM valinomycin, 1 μM L-Asp; triexponential fit; means and SEM
T3 construct: (His)8 behind a thrombin cleavage site (C, cleaved yes); made in house; host or cells: Escherichia coli DH10B
T3 sequence (O59010 1-417 D37H/K40H/K125H/K132H/K223H/K264H/C321A/E368H/N378C): as the sequence (O59010 1-417 D37H/K40H/K125H/K132H/K223H/K264H/E368H) above, with C321A, N378C counted along it
Method: Liposomes were prepared from a 3:1 (wt/wt) mixture of E. coli polar lipid extract (Avanti Polar Lipids) and egg phosphatidylcholine in SM-KCl buffer (50 mM HEPES/Tris, pH 7.4, and 200 mM KCl). Liposomes were extruded through 400-nm filters (Whatman Nucleopore) using a syringe extruder (Avanti), and destabilized by the addition of Triton X-100 at 1:2 (wt/wt) detergent-to-lipid ratio. Labeled GltPh was added to the liposome suspension at 1:1,000 (wt/wt) protein-to-lipid ratio at room temperature for 30 min. Detergent was removed by six rounds incubation of Bio-Beads (two rounds at 23°C for 2 h each, one round at 4°C overnight, and three rounds at 4°C for 2 h each). The excess substrate was removed by three rounds of centrifugation for 1 h at 49,192 g at 4°C, removal of the supernatant, addition of 1 ml fresh SM buffer, and three freeze/thaw cycles. Liposomes were concentrated to 50 mg/ml, and ccPEB1a-Y198F labeled with activated LD555P-MAL and LD655-MAL dyes as described ([Ciftci et al., 2020]) was added at a final concentration of 0.6 μM and encapsulated by two freeze–thaw cycles. To remove unencapsulated ccPEB1a-Y198F, 1 ml of SM-KCl buffer was added, and liposomes were centrifuged for 1 h at 49.192 g at 4°C. […]
Buffers were supplemented with an oxygen-scavenging system as above, and the smFRET movies were recorded with 400-ms integration time using 20–40-mW laser power. […]
Traces were analyzed using Spartan software ([Juette et al., 2016]). […] Traces with multiple photobleaching events (indicative of multiple sensors in a liposome) or inconsistent total fluorescence intensity were also discarded. Remaining traces were sorted by either the presence or absence of observable transport events (responding and nonresponding traces, respectively), determined by an increase in FRET efficiency from ∼0.55–0.6 to ∼0.75–0.8.
Responding traces from each video were plotted as time-dependent mean FRET efficiency. Buffer replacement time was determined as described ([Ciftci et al., 2020]). […]

GltPh = tested on: GltPh; design: method as in earlier work; settings: OFS over IFS; ref Mcilwain et al., 2016; Boudker et al., 2007; Wang and Boudker, 2020; cited from earlier work
P-GltPh (S279E/D405N) [3] = target: P-GltPh (S279E/D405N) (UniProt O59010); test: cryo-EM structure; P-GltPh in 0.8 mM DDM, 20 mM HEPES/Tris pH 7.4, 250 mM NaNO3, 1 mM L-Asp; C3 symmetry imposed, then symmetry expansion and focused classification of single protomers; Data S2 (L-Asp present throughout purification) and Data S1 (L-Asp added ~5 s before freezing)
[4] = 500 mM Na-gluconate, 15°C, Fit 1
[5] = 500 mM Na-gluconate, 15°C, Fit 2
[6] = 500 mM NaCl, 10°C and 15°C, n = 6
[7] = 10°C, 500 mM NaCl, two-state model
[8] = 15°C, 500 mM NaCl, two-state model

Compound: N[C@@H](CC(=O)O)C(=O)O [L-Asp, L-aspartate]
- Hill coefficient [1]: 0.69
- lower affinity versus GltPh (D390A mutant): 1,000 fold
- loss of L-Asp affinity (GltPh Y317F): 10 fold
- n1 (WT GltPh; [4]): 0.82
- n2 (WT GltPh; [4]): 0.36
- ΔH1 (WT GltPh; [4]): -22.7 kcal/mol
- ΔH2 (WT GltPh; [4]): 39.4 kcal/mol
- n1 (WT GltPh; [5]): 0.37
- n2 (WT GltPh; [5]): 0.89
- ΔH1 (WT GltPh; [5]): -50.0 kcal/mol
- ΔH2 (WT GltPh; [5]): 16.2 kcal/mol
- n1 (WT GltPh; 500 mM Na-gluconate, 35°C): 0.16
- n2 (WT GltPh; 500 mM Na-gluconate, 35°C): 1.30
- ΔH1 (WT GltPh; 500 mM Na-gluconate, 35°C): -24.6 kcal/mol
- ΔH2 (WT GltPh; 500 mM Na-gluconate, 35°C): -4.7 kcal/mol
- shape of ITC competition isotherms (WT GltPh; GltPh saturated with TFB-TBOA, competed with L-Asp, 15°C): bimodal isotherms
- sums of the apparent stoichiometries (n1 and n2 values), average (P-GltPh (S279E/D405N) [2]; [6]): 0.97 ± 0.26
- sums of the apparent stoichiometries (n1 and n2 values), range (P-GltPh (S279E/D405N) [2]; [6]): 0.74–1.53
- n1 (P-GltPh (S279E/D405N) [2]; [7]): 0.61 and 0.64 and 0.78
- n2 (P-GltPh (S279E/D405N) [2]; [7]): 0.13 and 0.20 and 0.18
- % n2 (P-GltPh (S279E/D405N) [2]; [7]): 18% and 24% and 19%
- ΔS1 (P-GltPh (S279E/D405N) [2]; [7]): 32.2 cal mol^-1 K^-1 and 40.0 cal mol^-1 K^-1 and 31.1 cal mol^-1 K^-1
- ΔH (P-GltPh (S279E/D405N) [2]; 15°C, 50 mM NaCl, single-state model): -2.3 kcal/mol
- ΔH (P-GltPh (S279E/D405N) [2]; 15°C, 500 mM Na-gluconate, two-state model, first state): -2.3 kcal/mol
- ΔH (P-GltPh (S279E/D405N) [2]; 15°C, 500 mM Na-gluconate, two-state model, second state): -5.5 kcal/mol
- ΔH (P-GltPh (S279E/D405N) [2]; 15°C, 500 mM NaCl, two-state model, first state): -3.3 kcal/mol
- ΔH (P-GltPh (S279E/D405N) [2]; 15°C, 500 mM NaCl, two-state model, second state): -7.1 kcal/mol
- n1 (P-GltPh (S279E/D405N) [2]; [8]): 1.13 and 0.64 and 0.63
- n2 (P-GltPh (S279E/D405N) [2]; [8]): 0.39 and 0.22 and 0.29
- % n2 (P-GltPh (S279E/D405N) [2]; [8]): 26% and 31%
- ΔS1 (P-GltPh (S279E/D405N) [2]; [8]): 29.4 cal mol^-1 K^-1 and 29.2 cal mol^-1 K^-1 and 31.4 cal mol^-1 K^-1
- ΔH (P-GltPh (S279E/D405N) [2]; 15°C, 500 mM NaNO3, two-state model, first state): -2.1 kcal/mol
- ΔH (P-GltPh (S279E/D405N) [2]; 15°C, 500 mM NaNO3, two-state model, second state): -6.5 kcal/mol
- ΔH (P-GltPh (S279E/D405N) [2]; 15°C, 1 M NaCl, two-state model, first state): -3.7 kcal/mol
- ΔH (P-GltPh (S279E/D405N) [2]; 15°C, 1 M NaCl, two-state model, second state): -8.7 kcal/mol

Compound: O=C([O-])[C@H](O)[C@@H](O)[C@H](O)[C@H](O)CO.[Na+] [Na-gluconate, sodium gluconate]
- Slow (%) transporter population (GltPh (C321A/N378C)): 81.1 ± 3.1%

Compound: [Cl-].[Na+] [NaCl]
- Slow (%) transporter population (GltPh (C321A/N378C)): 79.5 ± 3.4%
- fitted OFS2 fraction (P-GltPh (S279E/D405N) [2]; 10°C): ~20%
- fitted OFS2 fraction (P-GltPh (S279E/D405N) [2]; 15°C): ~28%

Compound: O=[N+]([O-])[O-].[Na+] [NaNO3]
- Slow (%) transporter population (GltPh (C321A/N378C)): 87.3 ± 2.2%
- fitted OFS2 fraction (P-GltPh (S279E/D405N) [2]; 15°C): ~38%

Compound: N[C@H](C(=O)O)[C@H](OCc1cccc(NC(=O)c2ccc(C(F)(F)F)cc2)c1)C(=O)O [TFB-TBOA]
- shape of ITC binding isotherms (WT GltPh; 15°C, 500 mM Na-gluconate, NaCl or NaNO3): bimodal ITC isotherms
- preference for OFS (GltPh): 100 fold

- stoichiometry N (P-GltPh (S279E/D405N) [3]): 3
Compound: P-GltPh (S279E/D405N) (from UniProt O59010 1-417)
